Assay results reported in US7528138B2, “Pyrazolo[1,5-a]pyrimidines useful as inhibitors of protein kinases” (Vertex Pharmaceuticals Incorporated, priority 2004, dated 2009).

Assays:
Format in all cases: biochemical
Itk = biological target: T1, Itk (Homo sapiens, UniProt Q08881); experiment: ITK Inhibition Assay (Radiometric), radioactive-phosphate incorporation; conditions: enzyme inhibition data (Ki), Table 11; radiometric or UV assay not stated
T1 sequence (Q08881 1-620): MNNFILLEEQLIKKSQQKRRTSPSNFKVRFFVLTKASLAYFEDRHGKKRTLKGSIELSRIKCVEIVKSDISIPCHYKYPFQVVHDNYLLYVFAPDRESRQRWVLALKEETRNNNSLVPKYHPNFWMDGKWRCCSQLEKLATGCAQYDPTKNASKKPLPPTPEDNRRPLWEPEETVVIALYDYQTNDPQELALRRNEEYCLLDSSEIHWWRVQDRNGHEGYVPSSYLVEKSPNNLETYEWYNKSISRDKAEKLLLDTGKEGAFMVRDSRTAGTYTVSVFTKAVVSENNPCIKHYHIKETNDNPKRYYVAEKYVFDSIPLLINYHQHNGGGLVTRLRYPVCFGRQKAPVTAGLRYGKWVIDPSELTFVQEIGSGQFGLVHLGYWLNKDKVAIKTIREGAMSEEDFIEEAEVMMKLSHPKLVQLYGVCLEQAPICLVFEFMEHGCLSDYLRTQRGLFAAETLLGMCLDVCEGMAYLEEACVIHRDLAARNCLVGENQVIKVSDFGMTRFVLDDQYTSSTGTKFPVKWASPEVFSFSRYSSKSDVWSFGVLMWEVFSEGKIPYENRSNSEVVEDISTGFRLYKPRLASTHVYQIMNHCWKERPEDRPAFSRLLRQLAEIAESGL
Method: Assays are carried out in a mixture of 20 mM MOPS (pH 7.0), 10 mM MgCl2, 0.1% BSA and 1 mM DTT. Final substrate concentrations in the assay are 7.5 μM [γ-33P]ATP (400 mCi 33P ATP/mmol ATP, Amersham Pharmacia Biotech/Sigma Chemicals) and 3 μM peptide (SAM68 protein D332-443). Assays are carried out at 25° C. in the presence of 50 nM Itk. An assay stock buffer solution is prepared containing all of the reagents listed above, with the exception of ATP and the test compound of interest. 50 μL of the stock solution is placed in a 96 well plate followed by addition of 2 μL of DMSO stock containing serial dilutions of the test compound (typically starting from a final concentration of 50 μM with 2-fold serial dilutions) in duplicate (final DMSO concentration 2%). The plate is pre-incubated for 10 minutes at 25° C. and the reaction initiated by addition of 50 μL [γ-33P]ATP (final concentration 7.5 μM).
The reaction is stopped after 10 minutes by the addition of […] 0.2M phosphoric acid+0.01% TWEEN 20. A multiscreen phosphocellulose filter 96-well plate (Millipore, Cat no. MAPHN0B50) is pretreated with 100 μL 0.2M phosphoric acid +0.01% TWEEN 20 prior to the addition of […] of the stopped assay mixture. The plate is washed with 4×200 μL 0.2M phosphoric acid+0.01% TWEEN 20. After drying, 30 μL Optiphase ‘SuperMix’ liquid scintillation cocktail (Perkin Elmer) is added to the well prior to scintillation counting (1450 Microbeta Liquid Scintillation Counter, Wallac).
Ki(app) data are calculated from non-linear regression analysis of the initial rate data using the Prism software package (GraphPad Prism version 3.0cx for Macintosh, GraphPad Software, San Diego Calif., USA).

JAK3 = biological target: T2, JAK3 (Homo sapiens, UniProt P52333); experiment: JAK3 Inhibition Assay, 33P incorporation; conditions: enzyme inhibition data (Ki), Table 11
T2 sequence (P52333 1-1124): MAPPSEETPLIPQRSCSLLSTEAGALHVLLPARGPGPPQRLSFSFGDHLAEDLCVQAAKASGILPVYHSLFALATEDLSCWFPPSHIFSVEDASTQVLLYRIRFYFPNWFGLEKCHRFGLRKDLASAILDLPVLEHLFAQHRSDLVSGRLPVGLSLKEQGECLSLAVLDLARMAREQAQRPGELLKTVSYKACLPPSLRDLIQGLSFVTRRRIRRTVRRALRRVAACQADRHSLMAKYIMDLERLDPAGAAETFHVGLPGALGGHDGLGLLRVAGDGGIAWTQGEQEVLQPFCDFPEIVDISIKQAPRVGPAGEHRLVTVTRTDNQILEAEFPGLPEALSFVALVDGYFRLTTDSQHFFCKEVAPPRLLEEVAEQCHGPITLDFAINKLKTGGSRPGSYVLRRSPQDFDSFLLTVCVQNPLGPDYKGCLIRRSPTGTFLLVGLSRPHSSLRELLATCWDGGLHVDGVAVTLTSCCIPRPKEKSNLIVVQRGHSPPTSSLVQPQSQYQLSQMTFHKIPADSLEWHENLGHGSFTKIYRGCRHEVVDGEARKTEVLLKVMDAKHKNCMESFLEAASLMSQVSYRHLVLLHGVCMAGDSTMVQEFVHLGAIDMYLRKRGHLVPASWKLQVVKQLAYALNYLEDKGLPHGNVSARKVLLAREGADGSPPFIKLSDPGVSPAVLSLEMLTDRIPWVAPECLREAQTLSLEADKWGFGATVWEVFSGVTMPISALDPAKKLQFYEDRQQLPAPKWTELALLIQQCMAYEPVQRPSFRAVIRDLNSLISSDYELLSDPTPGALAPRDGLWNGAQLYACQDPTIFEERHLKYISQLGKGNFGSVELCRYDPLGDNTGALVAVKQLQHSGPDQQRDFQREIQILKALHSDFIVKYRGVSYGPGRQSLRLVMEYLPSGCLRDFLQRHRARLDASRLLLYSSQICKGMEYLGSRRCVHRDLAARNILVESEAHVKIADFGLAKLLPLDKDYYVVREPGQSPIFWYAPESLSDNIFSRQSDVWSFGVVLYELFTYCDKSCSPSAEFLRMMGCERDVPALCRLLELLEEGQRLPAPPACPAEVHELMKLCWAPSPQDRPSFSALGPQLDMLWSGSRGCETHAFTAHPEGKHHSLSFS
Method: Reactions are carried out in a kinase buffer containing 100 mM HEPES (pH 7.4), 1 mM DTT, 10 mM MgCl2, 25 mM NaCl, and 0.01% BSA. Substrate concentrations in the assay are 5 μM ATP (200 uCi/μmole ATP) and 1 μM poly(Glu)4Tyr. Reactions are carried out at 25° C. and 1 nM JAK3. To each well of a 96 well polycarbonate plate is added 1.5 μl of a candidate JAK3 inhibitor along with 50 μl of kinase buffer containing 2 μM poly(Glu)4Tyr and 10 μM ATP. This is then mixed and 50 μl of kinase buffer containing 2 nM JAK3 enzyme is added to start the reaction. After 20 minutes at room temperature (25 C), the reaction is stopped with 50 μl of 20% trichloroacetic acid (TCA) that also contained 0.4 mM ATP. The entire contents of each well are then transferred to a 96 well glass fiber filter plate using a TomTek Cell Harvester. After washing, 60 μl of scintillation fluid is added and ^33P incorporation detected on a Perkin Elmer TopCount.

c-Met = c-Met (Homo sapiens, UniProt P08581); experiment: c-Met Inhibition Assay, coupled enzyme system; conditions: enzyme inhibition data (Ki), Table 11
Method: Compounds are screened for their ability to inhibit c-Met kinase activity using a standard coupled enzyme system (Fox et al., Protein Sci. 1998, 7, 2249). Reactions are carried out in a solution containing 100 mM HEPES (pH 7.5), 10 mM MgCl2, 25 mM NaCl, 300 μM NADH, 1 mM DTT, and 1.5% DMSO. Final substrate concentrations in the assay are 200 μM ATP (Sigma Chemicals, St Louis, Mo.) and 10 μM polyGluTyr (Sigma Chemical Company, St. Louis). Reactions are carried out at 30° C. and 80 nM c-Met. Final concentrations of the components of the coupled enzyme system are 2.5 mM phosphoenolpyruvate, 300 μM NADH, 30 μg/ml pyruvate kinase and 10 μg/ml lactate dehydrogenase.
An assay stock buffer solution is prepared containing all of the reagents listed above with the exception of ATP and a test compound of the present invention. The assay stock buffer solution (175 μl) is incubated in a 96 well plate with 5 μl of the test compound of the present invention at final concentrations spanning 0.006 μM to 12.5 μM at 30° C. for 10 minutes. Typically, a 12-point titration is conducted by preparing serial dilutions (from 10 mM compound stocks) with DMSO of the test compounds of the present invention in daughter plates. The reaction is initiated by the addition of 20 μl of ATP (final concentration 200 μM). Rates of reaction are obtained using a Molecular Devices Spectramax plate reader (Sunnyvale, Calif.) over 10 minutes at 30° C. The Ki values are determined from the rate data as a function of inhibitor concentration.

c-Met, sequence (P08581 25-1390): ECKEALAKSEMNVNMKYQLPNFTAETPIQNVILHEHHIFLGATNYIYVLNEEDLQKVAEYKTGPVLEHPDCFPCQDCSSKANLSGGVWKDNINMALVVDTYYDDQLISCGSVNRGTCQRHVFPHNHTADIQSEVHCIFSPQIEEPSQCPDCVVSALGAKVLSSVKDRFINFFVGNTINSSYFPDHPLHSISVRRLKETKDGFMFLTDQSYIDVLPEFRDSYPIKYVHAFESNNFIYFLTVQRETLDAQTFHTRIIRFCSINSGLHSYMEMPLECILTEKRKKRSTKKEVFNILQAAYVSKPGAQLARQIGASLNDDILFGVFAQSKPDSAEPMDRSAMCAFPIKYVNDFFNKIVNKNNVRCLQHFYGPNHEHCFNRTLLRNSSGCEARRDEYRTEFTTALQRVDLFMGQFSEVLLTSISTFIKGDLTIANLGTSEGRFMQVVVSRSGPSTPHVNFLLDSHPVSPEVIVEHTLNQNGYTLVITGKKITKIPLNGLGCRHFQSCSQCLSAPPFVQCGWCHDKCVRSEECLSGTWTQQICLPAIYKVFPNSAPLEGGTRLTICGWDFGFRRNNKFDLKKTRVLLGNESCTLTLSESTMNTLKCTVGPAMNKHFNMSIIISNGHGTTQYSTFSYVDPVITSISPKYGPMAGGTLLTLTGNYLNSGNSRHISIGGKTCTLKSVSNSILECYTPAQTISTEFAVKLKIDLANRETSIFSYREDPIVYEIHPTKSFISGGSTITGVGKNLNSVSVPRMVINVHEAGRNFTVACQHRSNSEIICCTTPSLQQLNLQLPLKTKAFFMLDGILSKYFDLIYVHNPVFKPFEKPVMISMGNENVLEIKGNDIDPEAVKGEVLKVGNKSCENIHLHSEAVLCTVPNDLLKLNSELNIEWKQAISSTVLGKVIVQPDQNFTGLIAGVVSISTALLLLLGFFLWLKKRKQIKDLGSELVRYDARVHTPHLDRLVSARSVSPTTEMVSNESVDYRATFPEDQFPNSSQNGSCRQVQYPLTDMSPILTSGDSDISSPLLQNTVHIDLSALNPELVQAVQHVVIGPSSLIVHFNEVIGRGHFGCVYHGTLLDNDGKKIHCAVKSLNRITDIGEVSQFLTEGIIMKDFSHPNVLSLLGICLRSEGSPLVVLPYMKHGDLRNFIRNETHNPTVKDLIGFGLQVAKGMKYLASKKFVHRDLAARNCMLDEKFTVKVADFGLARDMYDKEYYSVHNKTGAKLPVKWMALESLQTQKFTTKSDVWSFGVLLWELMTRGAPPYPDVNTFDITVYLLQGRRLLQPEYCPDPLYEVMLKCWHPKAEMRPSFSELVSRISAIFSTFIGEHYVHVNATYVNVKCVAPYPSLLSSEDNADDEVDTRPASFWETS

Row | Ki (Itk) [nM] | Ki (JAK3) [nM] | Ki (c-Met) [nM] | Compound
1 | 500 to 5000 | > 5000 | < 500 | Nc1nn2cc(N3CCCC3)cnc2c1-c1ccccn1 [Compound V-58]
2 | < 500 | 500 to 5000 | < 500 | Nc1nn2cc(-c3ccc(C(=O)N4CCC(N)CC4)cn3)cnc2c1-c1ccccn1 [Compound V-69]
3 | < 500 | 500 to 5000 | < 500 | Nc1nn2cc(-c3ccc(C(=O)N4CCC(N5CCCC5)CC4)cn3)cnc2c1-c1ccccn1 [Compound V-84]
4 | < 500 | 500 to 5000 | < 500 | CCN(CCO)C(=O)c1ccc(-c2cnc3c(-c4ccccn4)c(N)nn3c2)nc1 [Compound V-99]
5 | 500 to 5000 | > 5000 | < 500 | CN(CCc1ccccn1)C(=O)c1cccc(-c2cnc3c(-c4ccccn4)c(N)nn3c2)n1 [Compound V-100]
6 | 500 to 5000 | 500 to 5000 | < 500 | Nc1nn2cc(-c3cccc(C(=O)NCCF)n3)cnc2c1-c1ccccn1 [Compound V-107]
7 | 500 to 5000 | > 5000 | < 500 | COCCCNC(=O)c1cccc(-c2cnc3c(-c4ccccn4)c(N)nn3c2)n1 [Compound V-108]
8 | < 500 | 500 to 5000 | < 500 | CCCCN(CCN)C(=O)c1cccc(-c2cnc3c(-c4ccccn4)c(N)nn3c2)n1 [Compound V-113]
9 | 500 to 5000 | > 5000 | < 500 | COCCCN1CCN(C(=O)c2cccc(-c3cnc4c(-c5ccccn5)c(N)nn4c3)n2)CC1 [Compound V-117]
10 | 500 to 5000 | > 5000 | < 500 | CNC(=O)c1cccc(-c2cnc3c(-c4ccccn4)c(N)nn3c2)n1 [Compound V-118]

Further lines, the molecule ahead of its results:

Row | Compound | Ki (Itk) [nM] | Ki (JAK3) [nM] | Ki (c-Met) [nM]
11 | Nc1nn2cc(-c3ccccc3OCc3ccccc3)cnc2c1-c1ccccn1 [Compound V-56] | 500 to 5000 | > 5000 | 500 to 5000
12 | Nc1nn2cc(N3CCCCC3)cnc2c1-c1ccccn1 [Compound V-59] | 500 to 5000 | > 5000 | 500 to 5000
13 | CN(CCc1ccccn1)C(=O)c1ccc(-c2cnc3c(-c4ccccn4)c(N)nn3c2)nc1 [Compound V-60] | 500 to 5000 | 500 to 5000 | < 500
14 | CN1CCC(N(C)C(=O)c2ccc(-c3cnc4c(-c5ccccn5)c(N)nn4c3)nc2)CC1 [Compound V-61] | < 500 | 500 to 5000 | < 500
15 | COC(=O)C1CCCN1C(=O)c1ccc(-c2cnc3c(-c4ccccn4)c(N)nn3c2)nc1 (stereo not drawn) [Compound V-66] | 500 to 5000 | 500 to 5000 | < 500
16 | CCCCNC(=O)c1ccc(-c2cnc3c(-c4ccccn4)c(N)nn3c2)nc1 [Compound V-77] | 500 to 5000 | > 5000 | 500 to 5000
17 | CCCCN(CCN)C(=O)c1ccc(-c2cnc3c(-c4ccccn4)c(N)nn3c2)nc1 [Compound V-80] | < 500 | > 5000 | < 500
18 | CCN(CC)CCN(C)C(=O)c1ccc(-c2cnc3c(-c4ccccn4)c(N)nn3c2)nc1 [Compound V-88] | < 500 | 500 to 5000 | < 500
19 | Nc1nn2cc(-c3ccc(C(=O)N4CCCCC4)cn3)cnc2c1-c1ccccn1 [Compound V-91] | < 500 | < 500 | < 500
20 | CN(CC1OCCO1)C(=O)c1ccc(-c2cnc3c(-c4ccccn4)c(N)nn3c2)nc1 [Compound V-95] | < 500 | 500 to 5000 | < 500
21 | CC(C)N(C)C(=O)c1cccc(-c2cnc3c(-c4ccccn4)c(N)nn3c2)n1 [Compound V-103] | 500 to 5000 | > 5000 | < 500
22 | CN1CCCN(C(=O)c2cccc(-c3cnc4c(-c5ccccn5)c(N)nn4c3)n2)CC1 [Compound V-105] | 500 to 5000 | > 5000 | < 500
23 | CCCCNC(=O)c1cccc(-c2cnc3c(-c4ccccn4)c(N)nn3c2)n1 [Compound V-109] | 500 to 5000 | > 5000 | < 500
24 | CCN(CCCCN)C(=O)c1cccc(-c2cnc3c(-c4ccccn4)c(N)nn3c2)n1 [Compound V-110] | < 500 | 500 to 5000 | < 500
25 | CCCN(CCO)C(=O)c1cccc(-c2cnc3c(-c4ccccn4)c(N)nn3c2)n1 [Compound V-111] | 500 to 5000 | > 5000 | < 500
